Source: patent US8987193B2, “Nisin derivatives and the use thereof” (University College Cork—National University of Ireland, Cork, priority 2008, dated 2015)
“Also recorded” adds a separate entry of the source. Ends that are not written are not given here.

Columns and labels:
L. plantarum CBC6 = experiment: Deferred antagonism assay; type: cell-based, Lactobacillus plantarum; parameters: key: + = Enhanced bioactivity relative to control; − = Bioactivity equal to or less than control; NA = no activity evident; conditions: XX and XXX hinge mutant producers
Procedure: (§1) Deferred antagonism assays were performed by replicating strains on GM17 or GM17 x-gal agar plates and allowing them to grow overnight before overlaying with either GM17/BHI/TS/MH agar (0.75% w/v agar) seeded with the appropriate indicator strain. Zone size was calculated as the diameter of the zone of clearing minus the diameter of bacterial growth (5 mm) For higher throughput screening of N20PXX, XM21VX, XXK22T and XXX banks deferred antagonism assays were performed by replicating strains using a 96 pin replicator (Boekel) or spotting 5 μl of a fresh overnight culture on GM17 agar plates and allowing them to grow overnight. […] Additional sets of indicators were employed to further assess/reassess the bioactivity of a number of strains. […] For well-diffusion assays molten agar was cooled to 48° C. and seeded with the appropriate indicator strain. The inoculated medium was rapidly transferred into sterile Petri plates in 50 ml volumes, allowed to solidify and dried. Wells (4.6 mm in diameter) were then made in the seeded plates. Purified nisin and mutant nisins were resuspended in 0.005% acetic acid, serially diluted, 50 μl volumes were dispensed into the aforementioned wells and the plates incubated at 37° C. overnight. Bioactivity was expressed as arbitrary units/ml (AU/ml) and calculated as the reciprocal of the highest dilution that gave a definite zone multiplied by the conversion factor (i.e. 20 when 50 μl was used) (Ryan et al., 1996).
(§2) As a consequence of the enhanced activities of K22T and K22S, a more in-depth investigation of this region was carried out. Saturation mutagenesis was undertaken to create a bank of nisin A hinge derivatives containing the vast majority of possible amino acid substitutions for each position. Although pPTPL was used successfully for random mutagenesis, its relatively large size of approx 10.5 kb was considered unsuitable for the complete plasmid PCR amplification approach utilized for saturation mutagenesis. A smaller (approx 6 kb) E. coli-L. lactis shuttle vector pCI372 was considered to be potentially more useful. Its suitability with respect to the in trans expression of nisA was confirmed by the ability of pDFO5 to restore the nisin positive phenotype. Saturation mutagenesis was performed on each codon using pDF05 and oligonucleotides (Table 5) that replace the specific codon with a NNK triplet, potentially encoding all 20 standard amino acids. Following complete plasmid amplification and introduction into the intermediate Top10 host, sequence analysis of a pooled bank of pDF05 derivatives confirmed randomization. Introduction of these variants into L. lactis NZ9800 allowed the expression of mutant nisin A peptides for further analysis. […] 46 residue conversions were isolated. All strains, regardless of bioactivity, were assessed with a view to comprehensively assessing the consequences of each individual hinge alteration.

indicator strains = experiment: Deferred antagonism assays, various indicator strains (summary); type: cell-based; conditions: for Target strain against which the hinge mutant was selected for enhanced bioactivity: XX and XXX banks, L. lactis HP*: enhanced or equal; for Target strain against which the hinge mutant was selected for enhanced bioactivity / Strain(s) against which the derivative (producing strain) displays enhanced bioactivity: relative to nisin A-producing control; for Strain(s) against which the derivative (producing strain) displays enhanced bioactivity: value = strains listed; for number of targets with enhanced activity: of the 8 additional targets tested
Procedure: as §1

L. lactis CBC7 = experiment: Deferred antagonism assay; type: cell-based; parameters: key: + = Enhanced bioactivity relative to control; − = Bioactivity equal to or less than control; NA = no activity evident; conditions: XX and XXX hinge mutant producers
Procedure: as §1, §2

S. aureus CBC4 = experiment: Deferred antagonism assay; type: cell-based; parameters: key: + = Enhanced bioactivity relative to control; − = Bioactivity equal to or less than control; NA = no activity evident; conditions: XX and XXX hinge mutant producers
Procedure: as §1, §2

L. lactis CBC8 = experiment: Deferred antagonism assay; type: cell-based; parameters: key: + = Enhanced bioactivity relative to control; − = Bioactivity equal to or less than control; NA = no activity evident; conditions: XX and XXX hinge mutant producers
Procedure: as §1, §2

L. monocytogenes CBC3 = experiment: Deferred antagonism assay; type: cell-based, Listeria monocytogenes; parameters: key: + = Enhanced bioactivity relative to control; − = Bioactivity equal to or less than control; NA = no activity evident; conditions: L. mono CBC3; XX and XXX hinge mutant producers
Procedure: as §1, §2

L. monocytogenes CBC1 = experiment: Deferred antagonism assay; type: cell-based, Listeria monocytogenes; parameters: key: + = Enhanced bioactivity relative to control; − = Bioactivity equal to or less than control; NA = no activity evident; conditions: L. mono CBC1; XX and XXX hinge mutant producers
Procedure: as §1, §2

L. monocytogenes CBC2 = experiment: Deferred antagonism assay; type: cell-based, Listeria monocytogenes; parameters: key: + = Enhanced bioactivity relative to control; − = Bioactivity equal to or less than control; NA = no activity evident; conditions: L. mono CBC2; XX and XXX hinge mutant producers
Procedure: as §1, §2

Substance | bioactivity relative to a nisin A-producing control (L. plantarum CBC6) | Target strain against which the hinge mutant was selected for enhanced bioactivity (indicator strains) | Strain(s) against which the derivative (producing strain) displays enhanced bioactivity (indicator strains) | bioactivity relative to a nisin A-producing control (L. lactis CBC7) | bioactivity relative to a nisin A-producing control (S. aureus CBC4) | bioactivity relative to a nisin A-producing control (L. lactis CBC8) | bioactivity relative to a nisin A-producing control (L. monocytogenes CBC3) | bioactivity relative to a nisin A-producing control (L. monocytogenes CBC1) | bioactivity relative to a nisin A-producing control (L. monocytogenes CBC2) | number of targets with enhanced activity (indicator strains)
NisinA PAA | − | C. sporogenes UCC1 | C. sporogenes UCC1 and S. aureus CBC4 | − | + | − | − | − | − | 
NisinA PAL (ITSISLCTPGCKTGALMGCPALTATCHCSIHVSK; not fully specified (bridges); also: lantibiotic nisin-A: lanthionine rings and dehydrated residues, places not given here; UniProt P13068 24-57, looked up, variant N20P M21A K22L) [nisin A hinge variant PAL (i.e. N20P, M21A, K22L)] | − | C. sporogenes UCC1 | C. sporogenes UCC1, S. aureus CBC4, L. lactis CBC7 and CBC8, L. monocytogenes CBC2 and an additional 10 L. monocytogenes and 2 L. innocua; also recorded: C. sporogenes UCC1, L. mono CBC2, S. aureus CBC4, L. lactis | + | + | + | − | − | + | 4
NisinA PIA | − | Staph. aureus RF122 | B. cereus UCC1 | − | − | − | − | − | − | 
NisinA PGA (ITSISLCTPGCKTGALMGCPGATATCHCSIHVSK; not fully specified (bridges); also: lantibiotic nisin-A: lanthionine rings and dehydrated residues, places not given here; UniProt P13068 24-57, looked up, variant N20P M21G K22A) [nisin A hinge variant PGA (i.e. N20P, M21G, K22A)] |  | L. lactis HP* | S. agalactiae ATCC13813 and strain B and S. aureus NCDO1499 |  |  |  |  |  |  | 3
NisinA PMA |  | Strep. agalactiae ATCC 13813 | Strep. agalactiae ATCC 13813 and S. aureus DPC5246 |  |  |  |  |  |  | 1
NisinA PIT (ITSISLCTPGCKTGALMGCPITTATCHCSIHVSK; not fully specified (bridges); also: lantibiotic nisin-A: lanthionine rings and dehydrated residues, places not given here; UniProt P13068 24-57, looked up, variant N20P M21I K22T) [nisin A hinge variant PIT (i.e. N20P, M21I, K22T)] |  | L. lactis HP* | S. agalactiae ATCC13813 and strain B and S. aureus NCDO1499 |  |  |  |  |  |  | 3
NisinA PAQ (ITSISLCTPGCKTGALMGCPAQTATCHCSIHVSK; not fully specified (bridges); also: lantibiotic nisin-A: lanthionine rings and dehydrated residues, places not given here; UniProt P13068 24-57, looked up, variant N20P M21A K22Q) [nisin A hinge variant PAQ (i.e. N20P, M21A, K22Q)] |  | L. lactis HP* | S. agalactiae ATCC13813 and strain B and S. aureus NCDO1499 |  |  |  |  |  |  | 3
PHM: nisin A hinge variant PHM (i.e. N20P, M21H, K22M) (ITSISLCTPGCKTGALMGCPHMTATCHCSIHVSK; not fully specified (bridges); also: lantibiotic nisin-A: lanthionine rings and dehydrated residues, places not given here; UniProt P13068 24-57, looked up, variant N20P M21H K22M) |  | Strep. agalactiae ATCC 13813 | Strep. agalactiae ATCC 13813 and Strain B; also recorded: Strep. agalactiae ATCC 13813, S. agalactiae Strain B |  |  |  |  |  |  | 2
NisinA PHT (ITSISLCTPGCKTGALMGCPHTTATCHCSIHVSK; not fully specified (bridges); also: lantibiotic nisin-A: lanthionine rings and dehydrated residues, places not given here; UniProt P13068 24-57, looked up, variant N20P M21H K22T) [nisin A hinge variant PHT (i.e. N20P, M21H, K22T)] |  | Strep. agalactiae ATCC 13813 | Strep. agalactiae ATCC 13813 and Strain B, and L. lactis MG1363; also recorded: Strep. agalactiae ATCC 13813, L. lactis MG1363, S. agalactiae |  |  |  |  |  |  | 3
NisinA PIH (ITSISLCTPGCKTGALMGCPIHTATCHCSIHVSK; not fully specified (bridges); also: lantibiotic nisin-A: lanthionine rings and dehydrated residues, places not given here; UniProt P13068 24-57, looked up, variant N20P M21I K22H) [nisin A hinge variant PIH (i.e. N20P, M21I, K22H)] |  | L. lactis HP* | S. agalactiae Strain B |  |  |  |  |  |  | 1
NisinA PIV (ITSISLCTPGCKTGALMGCPIVTATCHCSIHVSK; not fully specified (bridges); also: lantibiotic nisin-A: lanthionine rings and dehydrated residues, places not given here; UniProt P13068 24-57, looked up, variant N20P M21I K22V) [nisin A hinge variant PIV (i.e. N20P, M21I, K22V)] |  | L. lactis HP* | S. agalactiae ATCC13813 and strain B and S. aureus NCDO1499 |  |  |  |  |  |  | 3
